Test results as given in patent US11576901B2, “Methods for treating viral infection” (HOWARD UNIVERSITY, priority 2016, dated 2023).

Key:
Assay type in all cases: cell-based
CEM T cells = test: Percent of viable CEM T cells after infection; details: CEM T cells after infection with HIV1 modified pNL4-3.Luc.R-E-virus; FIG. 3
Description: It is possible that the diminished expression of a protein within the genome of a virus containing an IRES sequence may have been brought about by the compound inhibiting the ability infected cells to survive. If the compound or salt diminishes viability or is otherwise toxic to the cell, then diminished expression of a protein within the genome of a virus containing an IRES sequence may be the result of infected cells dying before sufficient levels of the protein can be expressed. Determining if diminished expression of a protein is the result of cell death or other toxic effects of the compound or salt may be accomplished by assessing the viability of cells after administration of the compound or salt. Accordingly, in some embodiments of assessing the ability of a compound in accordance with General Formula 1, including derivatives in accordance with any of General Formulae 1-1 to 1-20, or pharmaceutically acceptable salts thereof, to inhibit the expression of at least a portion of a virus genome containing an IRES sequence, the compound or salt may be assessed for its ability to preserve viability of cells following administration. […]

HSV-1 = test: qPCR of ICP-0 mRNA in HSV-1 infected Hep-2 cells; details: 100 μM, 24 hours pretreatment, 0, 6, 12 and 24 hours after infection, vs DMSO, FIG. 8
Description: The inhibition of triggered expression of at least a portion of the HSV-1 genome and the inhibited proliferation of HSV-1, which may be the result of the former, indicate that compounds in accordance with General Formula 1, including derivatives in accordance with any of General Formulae 1-1 to 1-20, can treat viral infections. The treatment provided by compounds in accordance with General Formula 1, including derivatives in accordance with any of General Formulae 1-1 to 1-20, may be the result of either inhibition of transcription of viral mRNAs containing an IRES or the inhibited expression of viral proteins encoded by such within the IRES reading frame of such an mRNA. Determining whether mRNA transcription or protein expression is being inhibited can be accomplished by assessing the amount of mRNA containing an IRES is diminished by treatment with a compound in accordance with General Formula 1, including derivatives in accordance with any of General Formulae 1-1 to 1-20. FIG. 8 reports the amount of mRNA of the IE gene ICP-0 detected in Hep-2 cells following treatment with SD-29.
Hep-2 cells were pretreated with either DSMO as a control, 100 μM SD-29 or 100 μM SD29-12. After 24 hours of pretreatment, the Hep-2 cells were infected with HSV-1. At 0, 6, 12 and 24 hours after infection, the total RNA within the cells was isolated. […]

[1] = system: HIV1 modified pNL4-3.Luc.R-E-virus; test: Western assay of HIV p24 gag expression in infected CEM T cells; details: Western assay with HIV p24 antibody, FIG. 4
Description: The ability of a compound in accordance with General Formula 1, including derivatives in accordance with General Formulae 1-1 to 1-20, or pharmaceutically acceptable salts thereof, to inhibit the expression of at least a portion of a virus genome containing an IRES sequence can be also be determined by assessing the expression of a native protein within a viral genome. In some embodiments, the ability of a compound or pharmaceutically acceptable salt to inhibit expression of native protein can be assessed by using antibodies for a protein normally expressed from the virus genome. For example, HIV p24 gag is a protein normally expressed by HIV1 that can be detected using the HIVI p24 antibody. Accordingly, compounds in accordance with General Formula 1, including derivatives in accordance with any of General Formulae 1-1 to 1-20, or pharmaceutically acceptable salts thereof, can be assessed for the ability to inhibit proliferation of the HIV1 by infecting CEM T cells with the HIV1 modified pNL4-3.Luc.R-E-virus and assessing the expression of HIV p24 gag with the HIV p24 antibody. […]
A compound or salt may be wrongly classified as capable of inhibiting expression of at least a portion of a virus genome containing an IRES sequence due to unequal loading of proteins within an assay. […] In some embodiments, equivalent protein loading can be assessed by ponceau staining. […]

Compound: Nn1c(S)nnc1-c1ccc(F)cc1 [SD-29]
- viability of the infected cells (CEM T cells): did not decrease viability
- ICP-0 mRNA level / transcription of IE genes (HSV-1): does not inhibit transcription of mRNA corresponding to IE genes
- expression of HIV p24 gag [1]: does inhibit expression
